Results taken from patent US5302514A, “Maltooligoside derivative, reagent for determining α-amylase activity containing the same as effective ingredient and a process for determining the α-amylase activity using same” (Kikkoman Corporation, priority 1991, dated 1994).

How the values were obtained:
[1] = target: T1, amylase derived from human saliva (human S type α-amylase) (Homo sapiens, UniProt P0DUB6); test: Km value, S type α-amylase; format: biochemical; conditions: pH 7.0, 37° C., Lineweaver-Burk
T1 sequence (P0DUB6 16-511): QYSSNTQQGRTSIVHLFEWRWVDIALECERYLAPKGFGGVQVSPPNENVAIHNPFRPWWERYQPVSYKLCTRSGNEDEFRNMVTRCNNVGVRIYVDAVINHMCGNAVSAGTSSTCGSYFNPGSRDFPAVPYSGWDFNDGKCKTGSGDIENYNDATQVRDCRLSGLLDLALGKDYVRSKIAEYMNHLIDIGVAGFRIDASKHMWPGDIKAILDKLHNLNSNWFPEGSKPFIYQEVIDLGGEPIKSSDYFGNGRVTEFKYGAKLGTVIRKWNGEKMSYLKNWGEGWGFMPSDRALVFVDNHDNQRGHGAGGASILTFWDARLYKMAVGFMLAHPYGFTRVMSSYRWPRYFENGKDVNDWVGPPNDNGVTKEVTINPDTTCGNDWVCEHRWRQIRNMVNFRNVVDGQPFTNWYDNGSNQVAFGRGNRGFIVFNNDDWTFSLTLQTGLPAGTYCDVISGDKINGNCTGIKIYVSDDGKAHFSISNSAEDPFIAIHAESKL
Description: Km values, hydrolysis rate, water solubility and the patterns of action in the hydrolysis of the present substrates 2-chloro-4-nitrophenyl 5^5 -eno-4^5 -O-mesyl-β-D-maltopentaoside (EMG5CNP) and 2-chloro-4-nitrophenyl 6^5 -azido-6^5 -deoxy- β-D-maltopentaoside (ADG5CNP) obtained in Example were examined in accordance with the following methods.
Substrate solutions were prepared by dissolving in a 50 mM phosphate buffer (pH=7.0) containing 40 mM NaCl and 2 mM MgCl2 a substrate to 0.16, 0.32, 0.48, 0.64, 0.80 and 0.96 mM, respectively.
The Km value of each substrate solution was obtained by measuring the hydrolysis rate of the substrate in accordance with the same procedure as in the measurement of hydrolysis rate described below and roughly calculating the Lineweaver-Burk's reciprocal plot (see "Tanpaku-Kohso no Jikken-hou", ed. Takeichi Horio & Jinpei Yamashita, Nanko-do, 1981).
Each substrate was dissolved in a 50 mM phosphate buffer (pH=7.0) containing 40 mM NaCl and 2 mM MgCl2 to make three substrate solutions in a concentration of 0.8-1.6 times and three substrate solutions in a concentration of 1.6-3.2 times per the roughly calculated Km value in the aforementioned paragraph (ii).
The Km value was calculated in accordance with the same procedure as in the aforementioned paragraph (ii).
S: amylase derived from human saliva.

[2] = system: coupled enzyme (α-glucosidase derived from yeast and β-glucosidase derived from almond); test: Coupled enzyme resistance test; format: biochemical; conditions: 37° C., pH 7.0, FIG. 3 / FIG. 4; for hydrolysis by the coupled enzyme (in words): 3.0 mM substrate solution, α-glucosidase 1053 units/ml, β-glucosidase 15.5 units/ml, 400 nm for 5 minutes; for stability in a measuring system (in words): coupled enzyme system
Description: 2-chloro-4-nitrophenyl 5^5 -eno-4^5 -O-mesyl-β-D-maltopentaoside (molecular weight: 1044; referred to hereinafter as substrate of the present invention) obtained in Example 1 was dissolved in a 50 mM phosphate buffer (pH=7.0) containing 40 mM NaCl and 2 mM MgCl2 to a concentration of 3.0 mM.
2-chloro-4-nitrophenyl β-D-maltopentaoside (molecular weight: 984; referred to hereinafter as reference substrate) obtained in the conventional method was dissolved in a 50 mM phosphate buffer (pH=7.0) containing 40 mM NaCl and 2 mM MgCl2 to a concentation of 3.0 mM.
Coupled enzyme solution was prepared by dissolving a commercially available α-glucosidase derived from yeast and a commercially available β-glucosidase derived from almond in a 50 mM phosphate buffer (pH=7.0) containing 40 mM NaCl and 2 mM MgCl2 to a concentration of 1053 units/ml and 15.5 units/ml, respectively. As the commercially available α- and β-glucosidases, those available from Toyobo Co., Ltd. were used.
After 1.0 ml of a coupled enzyme solution was heated at 37° C. for 5 minutes, it was mixed sufficiently with 2.0 ml of the substrate solution of the present invention or the reference substrate solution and heated at 37° C. for 3 minutes. Then, variations of the absorbance at a wavelength of 400 nm were measured for 5 minutes.
The test was carried out in the same manner as in Example 9 except that 2-chloro-4-nitrophenyl 6^5 -azido-6^5 -deoxy-β-D-maltopentaoside (molecular weight: 1009; referred to hereinafter as the substrate of the present invention) obtained in Example 3 was employed as the substrate (a). In FIG. 4, marks Δ show the plottings of the substrate solution (a) and the marks .quadrature. show the plottings of the substrate solution (b).

Km [1] [µM]	hydrolysis by the coupled enzyme (in words) [2]	stability in a measuring system (in words) [2]	SMILES
260	not hydrolyzed	stable	[N-]=[N+]=NC[C@H]1O[C@H](O[C@H]2[C@H](O)[C@@H](O)[C@@H](O[C@H]3[C@H](O)[C@@H](O)[C@@H](O[C@H]4[C@H](O)[C@@H](O)[C@@H](O[C@H]5[C@H](O)[C@@H](O)[C@H](Oc6ccc([N+](=O)[O-])cc6Cl)O[C@@H]5CO)O[C@@H]4CO)O[C@@H]3CO)O[C@@H]2CO)[C@H](O)[C@@H](O)[C@@H]1O [ADG5CNP, 2-chloro-4-nitrophenyl 6^5-azido-6^5-deoxy-β-D-maltopentaoside]
140	not hydrolyzed	stable	C=C1O[C@H](O[C@H]2[C@H](O)[C@@H](O)[C@@H](O[C@H]3[C@H](O)[C@@H](O)[C@@H](O[C@H]4[C@H](O)[C@@H](O)[C@@H](O[C@H]5[C@H](O)[C@@H](O)[C@H](Oc6ccc([N+](=O)[O-])cc6Cl)O[C@@H]5CO)O[C@@H]4CO)O[C@@H]3CO)O[C@@H]2CO)[C@H](O)[C@@H](O)[C@@H]1OS(C)(=O)=O [EMG5CNP, 2-chloro-4-nitrophenyl 5^5-eno-4^5 -O-mesyl-β-D-maltopentaoside]
